# In US20160083424A1, “COMPOSITIONS AND METHODS FOR TARGETING ANTIGEN-PRESENTING CELLS” (OSLO UNIVERSITETSSYKEHUS HF, priority 2013, published 2016):
# Where two headings read alike, the source gives them in different places. Where no end group is shown, it is not given here.
# Tests used:
# B cells [1] = test: Peptide binding by flow cytometry; design: species or system human
# Method: (§1) The cells were seeded onto 24-well plate (3×10^5/well/0.5 ml) in X-vivo 15 medium and incubated overnight at 37° C. Subsequently, they were incubated with 6IAF-conjugated peptides (5 μg/ml) for 30 min at 37° C., gently scraped, washed 3 times and then analyzed by flow cytometry. Binding was also performed at 4° C.
# Blood myeloid DCs [2] = test: Peptide binding by flow cytometry; design: species or system human
# Method: as §1
# Blood pDCs [3] = test: Peptide binding by flow cytometry; design: species or system human
# Method: as §1
# Monocytes [4] = test: Peptide binding by flow cytometry; design: species or system human; details: compared with dendritic cells
# Method: as §1
# NK cells [5] = test: Peptide binding by flow cytometry; design: species or system human
# Method: as §1
# T cells [6] = test: Peptide binding by flow cytometry; design: species or system human
# Method: as §1
# iDCs [7] = test: Peptide binding by flow cytometry; design: species or system human; details: 4° C. and 37° C.
# Method: as §1
# iDC = test: Competition of NW phage binding by synthetic peptides; design: species or system human
# Method: (§2) In brief, aliquots of DCs (10^5) were divided into conical 96-well micro-plate, washed with PBS buffer containing 1% FCS, and then incubated with the amplified phages (≈10^9 TU) for 30-60 min on ice. After washing, cells were incubated with biotinylated anti-M13 monoclonal antibody (Abcam) and then with phycoerythrin (PE)-conjugated streptavidin. Competition assays were performed by pre-incubating DCs with different amounts of the peptides for 15 min on ice. Then NW phage (≈10^9 TU) was added and samples incubated for additional 60 min on ice. After washing, bound phages were detected as indicated above. Samples were analyzed by FACSCanto II flow cytometry.
# To further investigate the importance of the NW peptide on phage binding, competition experiments were performed using synthetic peptides.
# Monocytes [8] = test: Competition of NW phage binding by NW peptide and its mutant peptides; design: species or system human
# Method: as §2
# To uncover the contribution of individual side chains and identify which amino acids are responsible for the NW peptide binding to monocytes and dendritic cells, alanine scanning was performed. Derivatives of the NW peptide were synthesized with exchange of each amino acid by alanine (FIG. 11A). These peptide derivatives were used to compete with the NW phage binding to monocytes. For each peptide, four concentrations were tested. Bound phage particles were detected with the use of biotin conjugated anti-M13 antibody and PE-conjugated streptavidin. The NW peptide (WT) competed effectively with the phage binding to monocytes with an IC50 of approximately 0.5 uM. The replacement of tryptophan (W) at position 2, 6, or 12 by a single alanine abolished the binding. Indeed, no significant competition with the phage binding was seen even at high peptide concentrations (C4=20 uM). Similarly, replacement of leucine (L) at position 4 or 7 by alanine inhibited the peptide binding (FIG. 11B).
# iDCs [9] = test: Peptide binding and internalization by fluorescence microscopy; type: cell-based, human
# Method: Then the medium was replaced with fresh medium and the cells were incubated with the peptides (5 μg/ml) for 60 min at 37° C. followed by 5 min incubation with Hoechst 33342 (Invitrogen Dynal AS, Oslo, Norway). The cells were washed twice with PBS and fixed with 4% paraformaldehyde for 15 min at 4° C. After washing, slides were covered with Dako cytomation fluorescent mounting medium and then images were taken with either epifluorescence (Leica DM RHC, Leica Microscopy As, Oslo, Norway) or confocal microscopy (Zeiss LSM 510, […]).
# mDC = test: Phenotypic analysis of DCs after peptide incubation; type: cell-based, human; details: mDC incubated with peptide (15 μM) for 48 h, flow cytometry
# Method: Phenotype of DCs was analyzed by direct immunofluorescence staining of cell surface antigens using FITC or PE conjugated antibodies against CD80, CD83, CD86, HLA-DR, CCR7, CD40, and isotype controls. All antibodies were purchased from Dako (Glostrup, Denmark) or BD Biosciences (San Diego, Calif., USA). After staining on ice for 30 min, samples were washed twice and then analyzed by FACSCantoII flow cytometry
# (§3) With respect to cancer immunotherapy and active immunization against infectious diseases, targeting moieties should not have a negative impact on DC immunogenic function. To investigate whether the NW peptide can modulate DC phenotype and function, mDC were incubated with the peptide for 48 h and subsequently the expression of CD80, CD83, CD86, and HLADR molecules were analyzed by flow cytometry. […] The ability of mDCs to stimulate T-cell proliferation was assessed in a mixed leukocyte reaction (MLR), a hallmark of DC function. […] The NW-peptide had no major negative effects on DC phenotype and function.
# mDCs [10] = test: Mixed leukocyte reaction (MLR); type: cell-based, human; details: peptide-treated vs untreated mDCs
# Method: as §3
# human Gal-3 = test: Gene silencing by peptide-siRNA conjugates, Western blot; type: cell-based; details: iDCs, 48 h incubation
# Method: Immature DCs were seeded in a 6-well plate at a density of 10^6 cells per well and incubated for 24 h prior to transfection. Then the medium was replaced by fresh X-vivo 15 medium (2 ml/well) containing peptide-siRNA conjugates or free siRNAs. Cells were harvested 48 h after addition of the test molecules and monitored for gene expression by Western blots.
# Cells were resuspended in protein extraction buffer (PBS+1% NP-40) supplemented with protease inhibitor cocktail (Sigma-Aldrich Norge, Oslo, Norway) and incubated for 30 min on ice. After centrifugation, the supernatant were collected and protein contents were determined using Bio-Rad protein assay. Equal amounts of protein were resolved by electrophoresis on a 10% sodium dodecyl sulfate (SDS)-polyacrylamide gel and electrotransferred to nitrocellulose membrane. After blocking in 5% milk in TBS-Tween (1%) for 60 min, membranes were probed with primary antibodies against Gal-3 and HRP-conjugated secondary antibody. Immunoreactive proteins were detected using the enhanced chemiluminescence system. To control for protein loading, membranes were stripped and then incubated with β-actin monoclonal antibody.
# Because siRNA molecules must be released into the cytoplasm in order to function (Elbashir et al., (2001) Nature 411, 494-498), the data further confirm the internalization of the peptide after binding to DCs.
# B cells [11] = test: Phage binding by flow cytometry; design: species or system human
# Method: as §2
# Blood myeloid DCs [12] = test: Phage binding by flow cytometry; design: species or system human
# Method: as §2
# Blood pDCs [13] = test: Phage binding by flow cytometry; design: species or system human
# Method: as §2
# [14] = system: Cancer cell lines (MCF-7, MDA-MB 231, SW480, REH); test: Phage binding by flow cytometry; design: species or system human; details: all tested cancer cell lines
# Method: as §2
# Monocytes [15] = test: Phage binding by flow cytometry; design: species or system human
# Method: as §2
# NK cells [16] = test: Phage binding by flow cytometry; design: species or system human
# Method: as §2
# T cells [17] = test: Phage binding by flow cytometry; design: species or system human
# Method: as §2
# iDCs [18] = test: Phage binding by flow cytometry; design: species or system human
# Method: as §2
# mDCs [19] = test: Phage binding by flow cytometry; design: species or system human
# Method: as §2
# THP-1 = test: Phage binding by flow cytometry; details: human monocyte cell line THP-1
# Method: as §2
# DCs = test: Fluorescence microscopy analysis of phage binding and internalization; type: cell-based, human; details: 37° C. for 90 min
# Method: DCs were incubated with biotinylated phages at 4° C. for 30 min. After washing, the cells were incubated with streptavidin-PE. […] Hoechst 33342 dye was added to the cells for 5 min and then the cells were washed, fixed with 4% paraformaldehyde, and covered with Dako cytomation fluorescent mounting medium and analyzed with epifluorescence microscopy. Confocal images were obtained using an AxioVert 200 microscope (Carl Zeiss, Jena, Germany).
# iDCs [20] = system: iDCs
# Method: Commercially available streptavidin-PE (1/200) was incubated with biotinylated NW peptide or control peptide (1 μg/ml) for 30 min at RT. Then the mixtures were added to DCs growing in Lab-Tek chamber slides (Nalge Nunc International, Naperville, USA) and incubated for 60 min at 4° C. The cells were washed 3 times with medium and incubated at 37° C. for 90 min to allow internalization of bound streptavidin-PE. To visualize the nuclei, Hoechst 33342 (Invitrogen Dynal AS, Oslo, Norway) was added to the cells for 5 min. Subsequently, the cells were fixed with 4% paraformaldehyde, washed and slides were covered with Dako cytomation fluorescent mounting medium followed by epifluorescence microscopy analysis. Confocal images were taken with an AxioVert 200 microscope (Carl Zeiss, Jena, Germany).
# The use of the NW peptide to target antigens to DCs was assessed by examining its ability to promote the binding and uptake of streptavidin-PE complexes. For these experiments, streptavidin-PE was pre-incubated with either biotin conjugated NW peptide or biotin conjugated control peptide and then the mixtures were added to iDCs growing in Lab-Tek chamber slides, incubated at 4° C., washed and then transferred at 37° C.
# Monocytes [21] = details: biotin labeled peptide (10 μg), Dynabeads M-280 streptavidin, flow cytometry
# Method: In these experiments, peripheral blood mononuclear cells were isolated from buffy coats of healthy donors by density gradient centrifugation. […] Subsequently, the cells were washed with the binding buffer to remove unbound peptide and then they were suspended in 100 μl binding buffer. Subsequently, pre-washed Dynabeads M-280 streptavidin (20 μl) were added and the mixtures were incubated for 15 min at room temperature with agitation. After, the mixtures were placed in the separation magnet, during which time the beads and any attached cells are drawn to one side of the tube. Non-attached cells were carefully aspirated off and analyzed by flow cytometry to check the removal of the monocyte fraction (FIG. 15).
# [22] = biological target: NW peptide receptor (human); test: competition with NW phage on monocytes, flow cytometry; C3 = 8 µM peptide
# [23] = biological target: NW peptide receptor (human); test: competition with NW phage on monocytes, flow cytometry
# [24] = biological target: NW peptide receptor (human); test: competition with NW phage binding to monocytes, flow cytometry
molecule,measurement,setting,value
"NWYLPWLGTNDWC [NW peptide, NWYLPWLGTNDWC]",peptide binding,B cells [1],did not bind
same,peptide binding,Blood myeloid DCs [2]; Blood myeloid DCs,++++ (Binding >80-100%: ++++)
same,peptide binding,Blood myeloid DCs [2]; blood CD1c+ myeloid DCs,bound efficiently
same,peptide binding,"Blood myeloid DCs [2]; blood CD1c+ myeloid DCs, listed as synthetic peptide",bound
same,peptide binding,Blood pDCs [3]; Blood pDCs,++++ (Binding >80-100%: ++++)
same,peptide binding,Blood pDCs [3]; CD303+ plasmacytoid DCs,bound efficiently
same,peptide binding,"Blood pDCs [3]; CD303+ plasmacytoid DCs, listed as synthetic peptide",bound
same,peptide binding,Monocytes [4],bound as strongly to monocytes as to dendritic cells
same,peptide binding,NK cells [5],did not bind
same,peptide binding,T cells [6],did not bind
same,binding of 6-IAF-conjugated peptides to iDCs,iDCs [7],strong binding both at 4 °C and 37 °C
same,inhibition of the phage binding to iDC by synthetic peptides,iDC,effectively inhibited the phage binding to iDC in a concentration-dependent manner
same,IC50,"Monocytes [8]; dose-dependent inhibition, peptide concentrations 0.4, 2, 8, and 20 μM, read-out: inhibition of the NW phage binding, IC50",500 nM
same,IC50,"Monocytes [8]; monocytes, read-out: competition with the phage binding to monocytes, IC50",~500 nM
same,cell staining by epifluorescence microscopy,iDCs [9]; 6-IAF-conjugated peptide,strong cell staining
same,internalization by iDCs (confocal microscopy),iDCs [9]; 37° C.,efficiently internalized by iDCs
same,"expression of CD80, CD83, CD86, and HLADR molecules",mDC,None of the analyzed markers were significantly affected
same,T-cell proliferation in MLR,mDCs [10],comparable T-cell proliferation
same,Gal-3 gene silencing,human Gal-3,did not induce any detectable gene silencing
NWYLPWLGTNDW [DC2],phage binding,B cells [11],did not bind
same,Phage Binding,Blood myeloid DCs [12]; Blood myeloid DCs,++++ (Binding >80-100%: ++++)
same,phage binding,Blood myeloid DCs [12]; blood CD1c+ myeloid DCs,bound
same,Phage Binding,Blood pDCs [13]; Blood pDCs,++++ (Binding >80-100%: ++++)
same,phage binding,Blood pDCs [13]; CD303+ plasmacytoid DCs,bound
same,phage binding,[14],did not bind
same,Phage Binding,Monocytes [15],++++ (Binding >80-100%: ++++)
same,phage binding,Monocytes [15],strong binding
same,phage binding,NK cells [16],did not bind
same,phage binding,T cells [17],did not bind
same,phage binding after trypsine treatment of DCs,"iDCs [18]; Trypsine treatment of DCs, data not shown",eliminated phage binding
same,Binding,"iDCs [18]; binding of the phage clones to iDC, flow cytometry",++++ (Binding >80-100%: ++++)
same,phage binding,iDCs [18]; iDC,strong binding
same,Phage Binding,iDCs [18]; iDCs,++++ (Binding >80-100%: ++++)
same,Phage Binding,mDCs [19],++++ (Binding >80-100%: ++++)
same,phage binding,mDCs [19],strong binding
same,phage binding,THP-1,did not bind
same,internalization of the phage particles into DCs,DCs,able to mediate the internalization of the phage particles into DCs
NWYLPWLGTNDWGGGK-Biotin [NW-Biotin peptide],binding of streptavidin-PE complexes to DCs,"iDCs [20]; biotinylated peptide pre-incubated with streptavidin-PE, 4° C.",mediated the binding of streptavidin-PE complexes to DCs
same,internalization of streptavidin-PE,"iDCs [20]; confocal microscopy, after transfer to 37° C.",clear internalization and cellular localization of streptavidin-PE molecules
same,removal of the monocyte fraction from PBMC,Monocytes [21],"most, if not all monocyte population were removed"
NWYLPWLGTAAW [N10D11 double mutant],mean fluorescence of bound NW phage at C3 concentration,[22],250
NWYLPWLGTW [NW peptide with deletion of N10D11],fold reduction in IC50 against the NW peptide,[23],20 fold
NWYLPWLGTNDWC (also: carries 6-iodoacetamidofluorescein in direct binding assays) [NW peptide],IC50,[24],500 nM
